What was measured:
Assay type in all cases: in vivo
AMAPA [1] = assay: Pre-emergence biological efficacy; conditions: Amaranthus palmeri, 312 h, evaluated after 13 days, read-out: damage to plant (100=total damage to plant; 0=no damage to plant)
Outline: (§1)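 Sow in pots → 1 d glasshouse, 24/19 °C, 16 h light → spray compound (IF50/acetone formulation, 0.2% Genapol XO80 diluent) → grow 24/18 °C, 15 h light, 50% RH, water 2×/day → score damage 0–100 at 13 d.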

ECHCG [2] = assay: Pre-emergence biological efficacy; conditions: Echinochloa crus-galli, 312 h, evaluated after 13 days, read-out: damage to plant (100=total damage to plant; 0=no damage to plant)
Outline: as §1

EPHHL [3] = assay: Pre-emergence biological efficacy; conditions: Euphorbia heterophylla, 312 h, evaluated after 13 days, read-out: damage to plant (100=total damage to plant; 0=no damage to plant)
Outline: as §1

IPOHE [4] = assay: Pre-emergence biological efficacy; conditions: Ipomoea hederacea, 312 h, evaluated after 13 days, read-out: damage to plant (100=total damage to plant; 0=no damage to plant)
Outline: as §1

LOLPE [5] = assay: Pre-emergence biological efficacy; conditions: Lolium perenne, 312 h, evaluated after 13 days, read-out: damage to plant (100=total damage to plant; 0=no damage to plant)
Outline: as §1

SETFA [6] = assay: Pre-emergence biological efficacy; conditions: Setaria faberi, 312 h, evaluated after 13 days, read-out: damage to plant (100=total damage to plant; 0=no damage to plant)
Outline: as §1

AMAPA [7] = assay: Post-emergence biological efficacy; conditions: Amaranthus palmeri, 312 h, evaluated after 13 days, read-out: damage to plant (100=total damage to plant; 0=no damage to plant)
Outline: (§2)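 Damage was rated 13 days after treatment, from 0 (none) to 100 (total). Test compounds, formulated in IF50 and diluted with 0.2% Genapol XO80 to final dose, were sprayed on glasshouse plants raised for 14 days from seed.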

CHEAL = assay: Post-emergence biological efficacy; conditions: Chenopodium album, 312 h, evaluated after 13 days, read-out: damage to plant (100=total damage to plant; 0=no damage to plant)
Outline: as §2

DIGSA = assay: Post-emergence biological efficacy; conditions: Digitaria sanguinalis, 312 h, evaluated after 13 days, read-out: damage to plant (100=total damage to plant; 0=no damage to plant)
Outline: as §2

ECHCG [8] = assay: Post-emergence biological efficacy; conditions: Echinochloa crus-galli, 312 h, evaluated after 13 days, read-out: damage to plant (100=total damage to plant; 0=no damage to plant)
Outline: as §2

ELEIN = assay: Post-emergence biological efficacy; conditions: 312 h, evaluated after 13 days, read-out: damage to plant (100=total damage to plant; 0=no damage to plant)
Outline: as §2

EPHHL [9] = assay: Post-emergence biological efficacy; conditions: Euphorbia heterophylla, 312 h, evaluated after 13 days, read-out: damage to plant (100=total damage to plant; 0=no damage to plant)
Outline: as §2

IPOHE [10] = assay: Post-emergence biological efficacy; conditions: Ipomoea hederacea, 312 h, evaluated after 13 days, read-out: damage to plant (100=total damage to plant; 0=no damage to plant)
Outline: as §2

LOLPE [11] = assay: Post-emergence biological efficacy; conditions: Lolium perenne, 312 h, evaluated after 13 days, read-out: damage to plant (100=total damage to plant; 0=no damage to plant)
Outline: as §2

SETFA [12] = assay: Post-emergence biological efficacy; conditions: Setaria faberi, 312 h, evaluated after 13 days, read-out: damage to plant (100=total damage to plant; 0=no damage to plant)
Outline: as §2

| SMILES | pest or weed control at 250 g/ha (AMAPA [1]) [%] | pest or weed control at 250 g/ha (ECHCG [2]) [%] | pest or weed control at 250 g/ha (EPHHL [3]) [%] | pest or weed control at 250 g/ha (IPOHE [4]) [%] | pest or weed control at 250 g/ha (LOLPE [5]) [%] | pest or weed control at 250 g/ha (SETFA [6]) [%] | pest or weed control at 250 g/ha (AMAPA [7]) [%] | pest or weed control at 250 g/ha (CHEAL) [%] | pest or weed control at 250 g/ha (DIGSA) [%] | pest or weed control at 250 g/ha (ECHCG [8]) [%] | pest or weed control at 250 g/ha (ELEIN) [%] | pest or weed control at 250 g/ha (EPHHL [9]) [%] | pest or weed control at 250 g/ha (IPOHE [10]) [%] | pest or weed control at 250 g/ha (LOLPE [11]) [%] | pest or weed control at 250 g/ha (SETFA [12]) [%] |
| --- | --- | --- | --- | --- | --- | --- | --- | --- | --- | --- | --- | --- | --- | --- | --- |
| CCOC(=O)C1(C)CC(c2cc(-c3ccnc(C(F)(F)F)c3)c(F)cc2Cl)=NO1 (stereo not drawn) [Compound 1-499, Ethyl 3-[2-chloro-4-fluoro-5-[2-(trifluoromethyl)-4-pyridyl]-phenyl]-5-methyl-4H-isoxazole-5-carboxylate] | 20 | 0 | 0 | 0 | 20 | 0 | 80 | 80 | 60 | 50 | 60 | 50 | 70 | 0 | 80 |
| CCOC(=O)C1(C)CC(c2cc(-c3cc(Cl)ncc3OC)c(F)cc2Cl)=NO1 (stereo not drawn) [Compound 1-511, Ethyl 3-[2-chloro-5-(2-chloro-5-methoxy-4-pyridyl)-4-fluoro-phenyl]-5-methyl-4H-isoxazole-5-carboxylate] | 0 | 0 | 0 | 0 | 0 | 0 | 40 | 50 | 30 | 30 | 40 | 50 | 60 | 0 | 30 |
| CCOC(=O)C1(C)CC(c2cc(-c3cc(Cl)nc(OC)c3)c(F)cc2Cl)=NO1 (stereo not drawn) [Compound 1-523, Ethyl 3-[2-chloro-5-(2-chloro-6-methoxy-4-pyridyl)-4-fluoro-phenyl]-5-methyl-4H-isoxazole-5-carboxylate] | 0 | 20 | 0 | 0 | 0 | 0 | 50 | 40 | 50 | 20 | 10 | 50 | 60 | 0 | 50 |
| CCOC(=O)C1(C)CC(c2cc(-c3ncc(F)cc3F)c(F)cc2Cl)=NO1 (stereo not drawn) [Compound 1-551, Ethyl 3-[2-chloro-5-(3,5-difluoro-2-pyridyl)-4-fluoro-phenyl]-5-methyl-4H-isoxazole-5-carboxylate] | 80 | 80 | 50 | 60 | 50 | 90 | 100 | 100 | 100 | 100 | 100 | 90 | 100 | 100 | 100 |
| CCOC(=O)C1(C)CC(c2cc(-c3ncc(Br)cc3Cl)c(F)cc2Cl)=NO1 (stereo not drawn) [Compound 1-559, Ethyl 3-[5-(5-bromo-3-chloro-2-pyridyl)-2-chloro-4-fluoro-phenyl]-5-methyl-4H-isoxazole-5-carboxylate] | 100 | 90 | 50 | 10 | 50 | 80 | 100 | 100 | 80 | 100 | 90 | 100 | 100 | 90 | 100 |
